Measured values taken from the supplement of paper PMC13207355.

Experiments:
Conditions in all cases: exposure time: 72 h
E21 [1] = patient-derived glioblastoma stem cells of mesenchymal subtype; test: surviving fraction (nuclei count normalised to DMSO); higher = more cells surviving (less toxic)
E28 [2] = patient-derived glioblastoma stem cells of classical subtype; test: as above
E34 [3] = patient-derived glioblastoma stem cells of proneural subtype; test: as above
FT3469 [4] = normal neural stem cell line; test: as above
E13 [5] = patient-derived glioblastoma stem cells of classical subtype; test: as above
E57 [6] = patient-derived glioblastoma stem cells of mesenchymal subtype; test: as above
E31 [7] = patient-derived glioblastoma stem cells of proneural subtype; test: as above
E21 [8] = test: phenotypic distance (Euclidean, principal components) from DMSO controls (arbitrary units); higher = stronger morphological change
E28 [9] = test: as above
E34 [10] = test: as above
FT3469 [11] = test: as above
E13 [12] = test: as above
E57 [13] = test: as above
E31 [14] = test: as above
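For phenotypic distance (Euclidean, principal components) from DMSO controls in this document: cell Painting imaging in 384-well plates, CellProfiler features reduced to at least 20 principal components, Euclidean distance versus same-plate DMSO vehicle wells (0.1% v/v), median over six images per well.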
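For surviving fraction (nuclei count normalised to DMSO) in this document: nuclei counted by high-content imaging of Hoechst-stained cells in laminin-coated 384-well plates, relative to 0.1% DMSO vehicle wells, with staurosporine as cell-death control.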

COc1cc([C@@H]2c3cc4c(cc3[C@@H](O[C@@H]3O[C@@H]5CO[C@@H](C)O[C@H]5[C@H](O)[C@H]3O)[C@H]3COC(=O)[C@H]23)OCO4)cc(OC)c1O [Etoposide]
Conditions | phenotypic distance | surviving fraction
E13 [5], 4.11523 nM | – | 1.03
E13 [5], 12.34567901 nM | – | 0.806
E13 [5], 37.037 nM | – | 0.901
E13 [5], 111.1111111 nM | – | 0.78
E13 [5], 333.333 nM | – | 0.516
E13 [5], 1000 nM | – | 0.473
E13 [5], 3000 nM | – | 0.374
E13 [12], 4.11523 nM | 1.04 | –
E13 [12], 12.34567901 nM | 0.799 | –
E13 [12], 37.037 nM | 0.736 | –
E13 [12], 111.1111111 nM | 0.704 | –
E13 [12], 333.333 nM | 2.88 | –
E13 [12], 1000 nM | 4.56 | –
E13 [12], 3000 nM | 5.77 | –
E21 [1], 4.11523 nM | – | 0.896
E21 [1], 12.34567901 nM | – | 0.855
E21 [1], 37.037 nM | – | 0.885
E21 [1], 111.1111111 nM | – | 0.812
E21 [1], 333.333 nM | – | 0.588
E21 [1], 1000 nM | – | 0.47
E21 [1], 3000 nM | – | 0.298
E21 [8], 4.11523 nM | 0.716 | –
E21 [8], 12.34567901 nM | 0.855 | –
E21 [8], 37.037 nM | 0.967 | –
E21 [8], 111.1111111 nM | 1.35 | –
E21 [8], 333.333 nM | 2.88 | –
E21 [8], 1000 nM | 5.75 | –
E21 [8], 3000 nM | 5.93 | –
E28 [2], 4.11523 nM | – | 0.881
E28 [2], 12.34567901 nM | – | 0.762
E28 [2], 37.037 nM | – | 0.621
E28 [2], 111.1111111 nM | – | 0.419
E28 [2], 333.333 nM | – | 0.436
E28 [2], 1000 nM | – | 0.266
E28 [2], 3000 nM | – | 0.364
E28 [9], 4.11523 nM | 0.783 | –
E28 [9], 12.34567901 nM | 1.11 | –
E28 [9], 37.037 nM | 1.44 | –
E28 [9], 111.1111111 nM | 1.78 | –
E28 [9], 333.333 nM | 2.64 | –
E28 [9], 1000 nM | 2.9 | –
E28 [9], 3000 nM | 2.64 | –
E31 [7], 4.11523 nM | – | 0.746
E31 [7], 12.34567901 nM | – | 0.823
E31 [7], 37.037 nM | – | 0.554
E31 [7], 111.1111111 nM | – | 0.493
E31 [7], 333.333 nM | – | 0.307
E31 [7], 1000 nM | – | 0.283
E31 [7], 3000 nM | – | 0.231
E31 [14], 4.11523 nM | 0.939 | –
E31 [14], 12.34567901 nM | 0.828 | –
E31 [14], 37.037 nM | 1.58 | –
E31 [14], 111.1111111 nM | 3.2 | –
E31 [14], 333.333 nM | 4.03 | –
E31 [14], 1000 nM | 2 | –
E31 [14], 3000 nM | 2.86 | –
E34 [3], 4.11523 nM | – | 0.83
E34 [3], 12.34567901 nM | – | 0.966
E34 [3], 37.037 nM | – | 0.848
E34 [3], 111.1111111 nM | – | 0.873
E34 [3], 333.333 nM | – | 0.668
E34 [3], 1000 nM | – | 0.534
E34 [3], 3000 nM | – | 0.557
E34 [10], 4.11523 nM | 0.877 | –
E34 [10], 12.34567901 nM | 0.742 | –
E34 [10], 37.037 nM | 0.789 | –
E34 [10], 111.1111111 nM | 1.03 | –
E34 [10], 333.333 nM | 2.75 | –
E34 [10], 1000 nM | 3.46 | –
E34 [10], 3000 nM | 4.17 | –
E57 [6], 4.11523 nM | – | 0.919
E57 [6], 12.34567901 nM | – | 1.01
E57 [6], 37.037 nM | – | 0.959
E57 [6], 111.1111111 nM | – | 0.851
E57 [6], 333.333 nM | – | 0.435
E57 [6], 1000 nM | – | 0.295
E57 [6], 3000 nM | – | 0.182
E57 [13], 4.11523 nM | 0.758 | –
E57 [13], 12.34567901 nM | 0.794 | –
E57 [13], 37.037 nM | 0.549 | –
E57 [13], 111.1111111 nM | 1.24 | –
E57 [13], 333.333 nM | 4.25 | –
E57 [13], 1000 nM | 6.83 | –
E57 [13], 3000 nM | 7.52 | –
FT3469 [4], 4.11523 nM | – | 0.827
FT3469 [4], 12.34567901 nM | – | 0.774
FT3469 [4], 37.037 nM | – | 0.902
FT3469 [4], 111.1111111 nM | – | 0.731
FT3469 [4], 333.333 nM | – | 0.662
FT3469 [4], 1000 nM | – | 0.582
FT3469 [4], 3000 nM | – | 0.566
FT3469 [11], 4.11523 nM | 0.576 | –
FT3469 [11], 12.34567901 nM | 0.799 | –
FT3469 [11], 37.037 nM | 3.73 | –
FT3469 [11], 111.1111111 nM | 1.07 | –
FT3469 [11], 333.333 nM | 1.54 | –
FT3469 [11], 1000 nM | 2.2 | –
FT3469 [11], 3000 nM | 1.92 | –
